For this assay, the system named is muscarinic receptors. Description: Muscarinic binding: displacement of [3H]N-methylscopolamine, rat frontal cortical membranes. As to conditions: for Muscarinic % displacement at 10^−6 M: 10^−6 M test compound, single determination, [3H]N-methylscopolamine; for Ki: [3H]N-methylscopolamine 0.15 nM, rat frontal cortical membranes. The method, then: Frontal cortical tissue from the brains of male Charles River rats weighing 150-250 g was homogenised in ice-cold 20 mM HEPES buffer, pH 7.5 (measured at 25° C.) containing 100 mM sodium chloride and 10 mM magnesium chloride (1:10 w/v) using a Polytron PT3100 (speed setting 21,700 rpm, 3×5 seconds) and centrifuged at 49,500 g for 30 minutes at 4° C. The supernatant was discarded and the pellet rehomogenised in 20 mM HEPES buffer, pH 7.5 containing 100 mM sodium chloride and 10 mM magnesium chloride (equivalent to 12.5 mg wet weight of tissue/ml). Membranes were stored at −80° C. until required.
Membranes were thawed, diluted 1:10 in ice-cold 20 mM HEPES buffer, pH 7.5 containing 100 mM sodium chloride and 10 mM magnesium chloride and homogenised using a Polytron PT3100 as above. Diluted membranes (200 μl; equivalent to 0.25 mg wet weight of tissue/tube) were incubated with 200 μl of 20 mM HEPES buffer, pH 7.5 containing 100 mM sodium chloride and 10 mM magnesium chloride and 50 μl [^3H]N-methylscopolamine at a single concentration of 0.15 nM and 50 μl distilled water (total binding) or 50 μl test compound (at a single concentration of 10^−6 M or at 10 concentrations ranging from 10^−11-10^−3 M) or 50 μl atropine sulphate (1 μM; non-specific binding) for 30 min at 30° C. Membrane bound radioactivity was recovered by filtration under vacuum through Skatron 11734 filters using a Skatron cell harvester. Filters were rapidly washed with ice-cold 20 mM HEPES buffer, pH 7.5 (wash 1,2 at setting 5,5). The scored filter paper discs were punched out into vials, scintillation fluid added and radioactivity determined by liquid scintillation counting.
For each of these tests measuring the ability of compounds of Formula I to displace standard ligands from 5-HT1A receptors and 5-hydroxytryptamine (5-HT) and noradrenaline (NA) reuptake sites and muscarinic receptors in vitro, the percentage displacement of specific binding of tritiated ligand by 10^−6 M test compound was calculated in the following way.
Firstly, specific binding of tritiated ligand in the absence (A) and presence (B) of test compound was determined:
In the absence of compound: A(dpm)=Total binding (dpm)−Non-specific binding (dpm) In the presence of compound (10^−6 M): B(dpm)=Binding at 10^−6M (dpm)−Non-specific binding (dpm)
The specific binding of tritiated ligand in the presence (B) of compound was then converted to a percentage of specific binding of tritiated ligand in the absence (A) of compound: % Specific binding at 10^−6 M=B(dpm)/A(dpm)×100
The percentage displacement of specific binding of tritiated ligand by the test compound (10^−6 M) was then obtained by subtraction of the percentage specific binding in the presence of compound from the percentage specific binding in the absence of compound, which is taken as the maximum binding and so equals 100%:
% Displacement at 10^−6 M=100−% Specific binding at 10^−6 M.
In some cases, displacement curves were then produced for compounds which displaced ≧50% of specific binding of the tritiated ligand at 10^−6 M using a range of concentrations of the compound. The Ki was then calculated by simultaneous fitting using equations derived from the Feldman equations by robust non-linear regression to data from three experiments simultaneously (De Lean et al., 1978; Munson and Rodbard, 1980; Feldman, 1992). Munson P J and Rodbard D. Ligand: a versatile computerised approach for characterisation of ligand binding systems. Anal Biochem 1980; 107: 220. Feldman HA. Mathematical theory of complex ligand binding systems at equilibrium: some methods for parameter fitting. Anal Biochem 1992: 48, 317. De Lean A, Munson P J and Rodbard D. Simultaneous analysis of families of sigmoidal curves: application to bioassay, radioligand assay, and physiological dose-response curves. Am J Physiol 1978: 235 (2), E97-E102. […]
A general note: In a radioligand displacement assay an active substance lowers the binding of a labelled ligand.

Usually Ki stands for a measure of affinity in units of concentration, obtained from inhibition or displacement. A high value points to lower affinity.

In the case of `Cl.Fc1cccc2sc(C3=CSC4=NCCN34)cc12` [Example 5, 3-(4-fluorobenzo[b]thiophen-2-yl)-5,6-dihydroimidazo[2,1-b]thiazole hydrochloride], the “Muscarinic % displacement at 10^−6 M” value stood at 42%.

`OCC1=C(c2ccc3sccc3c2)N2CCN=C2S1` [Example 28, [3-(benzo[b]thiophen-5-yl)-5,6-dihydroimidazo[2,1-b]-thiazol-2-yl]methanol]: the “Muscarinic % displacement at 10^−6 M” value was −8%. The same measure, in the same setting: the value for `OCC1=C(c2cc3c(Cl)cccc3s2)N2CCN=C2S1` [Example 4, [3-(4-chlorobenzo[b]thiophen-2-yl)-5,6-dihydroimidazo[2,1-b]thiazol-2-yl]methanol] was 0%. For the setting “fumarate”, `CCC1=C(c2cccc3sccc23)N2CCN=C2S1.O=C(O)/C=C/C(=O)O` [Example 25, 3-(benzo[b]thiophen-4-yl)-2-ethyl-5,6-dihydroimidazo[2,1-b]thiazole fumarate] returned a Ki of 249 nM. As to `Br.CC1=C(c2cc3ccccc3s2)N2CCN=C2S1` [Example 6, 3-(benzo[b]thiophen-2-yl)-2-methyl-5,6-dihydroimidazo[2,1-b]thiazole hydrobromide], the “Muscarinic % displacement at 10^−6 M” value is −2%. With `Br.CC1=C(c2cc3c(Cl)c(Cl)ccc3s2)N2CCN=C2S1` [Example 24, 3-(4,5-dichlorobenzo[b]thiophen-2-yl)-2-methyl-5,6-dihydroimidazo[2,1-b]-thiazole hydrobromide], the “Muscarinic % displacement at 10^−6 M” value is recorded as −10%. Take `Br.COc1cccc2cc(C3=C(C)SC4=NCCN43)sc12` [Example 26, 3-(7-methoxybenzo[b]thiophen-2-yl)-2-methyl-5,6-dihydroimidazo[2,1-b]thiazole hydrobromide]: the “Muscarinic % displacement at 10^−6 M” value was −11%. In the case of `CSC1=C(c2cccc3sccc23)N2CCN=C2S1.Cl` [Example 22, 3-(benzo[b]thiophen-4-yl)-2-(methylthio)-5,6-dihydroimidazo[2,1-b]thiazole hydrochloride], the affinity corresponds to a Ki of 439 nM.

The record behind these values is patent US6900216B2, “Dihydroimidazo[2,1-b]thiazole and dihydro-5h-thiazolo[3,2-A]pyrimidines as antidepressant agents” (Knoll GmbH, priority 2000, dated 2005).
